Holding throughout (assay): Kinase panel enzymatic inhibition assay (Nanosyn)
What all share (type): biochemical
Holding throughout (settings): compound 5 μM; ATP at Km; 30-minute pre-incubation

One assay has as its target T1, KIT (Homo sapiens, UniProt P10721).
T1 construct: purchased Nanosyn (contract screening)
An outline of the steps: (§1)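 Single-point screen: compound 5 μM, ATP at Km per kinase, 30 min pre-incubation. Readout by mobility shift (Caliper LabChip), ADP detection or TR-fluorescence. Reported as % inhibition or IC50.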

A further assay has as its target T2, LCK (Homo sapiens, UniProt P06239).
T2 construct: purchased Nanosyn (contract screening)
Put shortly: as §1

For a further assay, the target named is T3, SGK3 (Homo sapiens, UniProt Q96BR1).
T3 construct: Nanosyn (contract laboratory that ran the panel)
T3 sequence (Q96BR1 1-496): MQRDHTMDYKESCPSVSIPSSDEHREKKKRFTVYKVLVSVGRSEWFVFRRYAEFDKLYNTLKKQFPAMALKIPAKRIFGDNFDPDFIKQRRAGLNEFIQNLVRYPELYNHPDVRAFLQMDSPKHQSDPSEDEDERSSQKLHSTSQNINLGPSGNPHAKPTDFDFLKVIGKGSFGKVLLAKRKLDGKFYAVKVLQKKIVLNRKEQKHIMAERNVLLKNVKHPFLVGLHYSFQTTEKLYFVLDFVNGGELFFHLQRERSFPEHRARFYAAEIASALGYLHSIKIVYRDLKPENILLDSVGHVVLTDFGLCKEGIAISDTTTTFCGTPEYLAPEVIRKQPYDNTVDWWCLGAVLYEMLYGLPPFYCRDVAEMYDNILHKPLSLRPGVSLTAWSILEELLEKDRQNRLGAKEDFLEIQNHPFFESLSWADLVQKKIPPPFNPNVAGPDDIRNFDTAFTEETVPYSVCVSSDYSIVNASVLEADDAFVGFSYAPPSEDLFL
Put shortly: as §1

Another assay addresses T4, BRK (Homo sapiens, UniProt Q13882).
T4 construct: purchased Nanosyn (contract screening)
Put shortly: as §1

The next assay has as its target T5, CSF1R (Homo sapiens, UniProt P07333).
T5 construct: purchased Nanosyn (contract screening)
An outline of the steps: as §1

In a further assay the target is T6, SRC (Homo sapiens, UniProt P12931).
T6 construct: Nanosyn (contract laboratory that ran the panel)
Put shortly:
as §1

The next assay deals with T7, Abl1 (Homo sapiens, UniProt P00519).
T7 construct: purchased Nanosyn (contract screening)
An outline of the steps: as §1

In the next assay the target is T8, COT1 (Homo sapiens, UniProt P41279).
T8 construct: purchased Nanosyn (contract screening)
An outline of the steps: as §1

The target of a further assay is T9, FGR (Homo sapiens, UniProt P09769).
T9 construct: purchased Nanosyn (contract screening)
An outline of the steps: as §1

The target in a further assay is T10, HCK (Homo sapiens, UniProt P08631).
T10 construct: purchased Nanosyn (contract screening)
T10 sequence (P08631 whole entry): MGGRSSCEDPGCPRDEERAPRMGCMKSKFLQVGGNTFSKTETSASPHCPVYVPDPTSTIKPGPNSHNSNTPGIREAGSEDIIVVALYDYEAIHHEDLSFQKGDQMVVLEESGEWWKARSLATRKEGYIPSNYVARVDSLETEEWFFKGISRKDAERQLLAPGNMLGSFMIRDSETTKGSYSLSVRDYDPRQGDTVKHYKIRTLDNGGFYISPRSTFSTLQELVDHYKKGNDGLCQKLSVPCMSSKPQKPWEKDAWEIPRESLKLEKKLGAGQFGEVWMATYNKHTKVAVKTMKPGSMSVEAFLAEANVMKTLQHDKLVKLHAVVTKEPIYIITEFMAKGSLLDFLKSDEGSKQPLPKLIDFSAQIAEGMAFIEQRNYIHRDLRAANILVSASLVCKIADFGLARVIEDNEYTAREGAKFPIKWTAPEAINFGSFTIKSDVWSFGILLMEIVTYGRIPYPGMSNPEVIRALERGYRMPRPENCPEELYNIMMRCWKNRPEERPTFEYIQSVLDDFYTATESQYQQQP
An outline of the steps: as §1

A further assay concerns the target T11, BRAF (Homo sapiens, UniProt P15056).
T11 construct: purchased Nanosyn (contract screening)
Put shortly:
as §1

Another assay addresses T12, FYN (Homo sapiens, UniProt P06241).
T12 construct: purchased Nanosyn (contract screening)
Put shortly:
as §1

The target in the next assay is T13, Abl2 (Homo sapiens, UniProt P42684).
T13 construct: purchased Nanosyn (contract screening)
Put shortly: as §1

The next assay deals with T14, p38a (Homo sapiens, UniProt Q16539).
T14 construct: Nanosyn (contract laboratory that ran the panel)
Put shortly:
as §1

For a further assay, the target named is T15, ZAK (Homo sapiens, UniProt Q9NYL2).
T15 construct: Nanosyn (contract laboratory that ran the panel)
An outline of the steps: as §1

A further assay deals with T16, RET (Homo sapiens, UniProt P07949).
T16 construct: Nanosyn (contract laboratory that ran the panel)
Put shortly:
as §1

The target in another assay is T17, PKCb1 (Homo sapiens, UniProt P05771).
T17 construct: Nanosyn (contract laboratory that ran the panel)
T17 sequence (P05771 whole entry): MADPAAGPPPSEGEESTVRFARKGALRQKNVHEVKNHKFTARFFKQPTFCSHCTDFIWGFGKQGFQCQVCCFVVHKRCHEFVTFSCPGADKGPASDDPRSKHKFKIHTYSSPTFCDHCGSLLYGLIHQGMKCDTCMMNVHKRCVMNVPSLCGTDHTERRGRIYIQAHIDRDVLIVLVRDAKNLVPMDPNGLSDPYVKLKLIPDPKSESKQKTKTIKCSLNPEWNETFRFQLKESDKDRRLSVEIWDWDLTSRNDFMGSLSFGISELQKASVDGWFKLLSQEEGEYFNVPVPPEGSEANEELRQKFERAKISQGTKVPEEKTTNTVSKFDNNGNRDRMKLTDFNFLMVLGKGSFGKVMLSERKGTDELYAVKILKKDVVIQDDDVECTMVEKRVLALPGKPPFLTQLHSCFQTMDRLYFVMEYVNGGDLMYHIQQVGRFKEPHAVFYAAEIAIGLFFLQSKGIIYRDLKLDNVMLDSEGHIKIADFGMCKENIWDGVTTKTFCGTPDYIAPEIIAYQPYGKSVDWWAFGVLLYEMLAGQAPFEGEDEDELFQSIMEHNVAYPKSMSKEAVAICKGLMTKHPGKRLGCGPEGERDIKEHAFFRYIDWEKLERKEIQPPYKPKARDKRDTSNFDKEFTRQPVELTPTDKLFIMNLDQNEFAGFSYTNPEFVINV
Put shortly: as §1

The next assay deals with T18, LYNa (Homo sapiens, UniProt P07948).
T18 construct: purchased Nanosyn (contract screening)
Put shortly:
as §1

Another assay deals with T19, CSK (Homo sapiens, UniProt P41240).
T19 construct: purchased Nanosyn (contract screening)
T19 sequence (P41240 whole entry): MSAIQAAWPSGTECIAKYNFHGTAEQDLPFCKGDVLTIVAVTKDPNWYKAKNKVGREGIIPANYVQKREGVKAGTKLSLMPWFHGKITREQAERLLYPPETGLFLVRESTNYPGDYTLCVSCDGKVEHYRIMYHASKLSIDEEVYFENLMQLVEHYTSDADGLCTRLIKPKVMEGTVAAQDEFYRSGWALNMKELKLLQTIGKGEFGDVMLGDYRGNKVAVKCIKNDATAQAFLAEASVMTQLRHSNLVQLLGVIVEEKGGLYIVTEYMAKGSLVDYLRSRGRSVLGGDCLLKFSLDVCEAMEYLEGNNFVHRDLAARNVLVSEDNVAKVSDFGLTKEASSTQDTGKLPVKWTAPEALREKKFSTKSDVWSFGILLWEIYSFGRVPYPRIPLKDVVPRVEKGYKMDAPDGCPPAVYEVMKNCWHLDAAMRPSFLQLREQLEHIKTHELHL
An outline of the steps:
as §1

Another assay deals with T20, TNIK (Homo sapiens, UniProt Q9UKE5).
T20 construct: Nanosyn (contract laboratory that ran the panel)
T20 sequence (Q9UKE5 whole entry): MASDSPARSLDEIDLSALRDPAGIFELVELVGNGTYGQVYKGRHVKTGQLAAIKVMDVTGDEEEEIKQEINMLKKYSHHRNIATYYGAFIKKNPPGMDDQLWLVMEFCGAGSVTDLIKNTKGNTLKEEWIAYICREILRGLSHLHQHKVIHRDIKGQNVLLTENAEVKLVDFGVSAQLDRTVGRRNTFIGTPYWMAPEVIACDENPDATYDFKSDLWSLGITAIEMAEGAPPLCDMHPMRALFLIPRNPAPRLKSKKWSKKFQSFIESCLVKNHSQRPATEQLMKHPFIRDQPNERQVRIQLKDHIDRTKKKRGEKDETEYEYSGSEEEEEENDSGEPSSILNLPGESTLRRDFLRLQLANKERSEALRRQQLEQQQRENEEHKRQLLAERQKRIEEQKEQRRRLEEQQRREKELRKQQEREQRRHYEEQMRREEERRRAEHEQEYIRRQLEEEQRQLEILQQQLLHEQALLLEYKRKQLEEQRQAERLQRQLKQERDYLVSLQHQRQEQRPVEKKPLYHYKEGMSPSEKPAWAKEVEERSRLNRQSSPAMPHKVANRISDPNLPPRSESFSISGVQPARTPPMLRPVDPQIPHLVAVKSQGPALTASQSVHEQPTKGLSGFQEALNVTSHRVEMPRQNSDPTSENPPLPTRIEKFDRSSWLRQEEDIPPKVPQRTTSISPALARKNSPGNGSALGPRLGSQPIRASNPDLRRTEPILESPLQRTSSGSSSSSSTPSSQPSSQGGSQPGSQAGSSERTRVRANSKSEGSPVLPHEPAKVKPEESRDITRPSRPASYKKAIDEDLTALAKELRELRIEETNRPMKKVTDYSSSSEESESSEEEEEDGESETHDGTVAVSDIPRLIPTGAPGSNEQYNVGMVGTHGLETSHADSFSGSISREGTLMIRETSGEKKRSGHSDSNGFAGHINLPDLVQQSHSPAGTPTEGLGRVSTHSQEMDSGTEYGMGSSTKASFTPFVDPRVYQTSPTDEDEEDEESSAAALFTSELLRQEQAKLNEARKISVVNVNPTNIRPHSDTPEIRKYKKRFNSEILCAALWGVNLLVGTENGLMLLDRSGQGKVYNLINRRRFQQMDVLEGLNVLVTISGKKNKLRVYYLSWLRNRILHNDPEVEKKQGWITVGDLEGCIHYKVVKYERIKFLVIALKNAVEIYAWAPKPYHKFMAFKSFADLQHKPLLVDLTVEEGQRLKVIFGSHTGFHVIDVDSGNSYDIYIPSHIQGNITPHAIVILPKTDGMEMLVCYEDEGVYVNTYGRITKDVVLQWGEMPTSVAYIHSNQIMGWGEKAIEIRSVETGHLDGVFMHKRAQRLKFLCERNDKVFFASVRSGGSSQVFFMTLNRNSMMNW
Put shortly:
as §1

A further assay concerns the target T21, CLK4 (Homo sapiens, UniProt Q9HAZ1).
T21 construct: purchased Nanosyn (contract screening)
An outline of the steps: as §1

In a further assay the target is T22, SGK2 (Homo sapiens, UniProt Q9HBY8).
T22 construct: Nanosyn (contract laboratory that ran the panel)
T22 sequence (Q9HBY8 1-367): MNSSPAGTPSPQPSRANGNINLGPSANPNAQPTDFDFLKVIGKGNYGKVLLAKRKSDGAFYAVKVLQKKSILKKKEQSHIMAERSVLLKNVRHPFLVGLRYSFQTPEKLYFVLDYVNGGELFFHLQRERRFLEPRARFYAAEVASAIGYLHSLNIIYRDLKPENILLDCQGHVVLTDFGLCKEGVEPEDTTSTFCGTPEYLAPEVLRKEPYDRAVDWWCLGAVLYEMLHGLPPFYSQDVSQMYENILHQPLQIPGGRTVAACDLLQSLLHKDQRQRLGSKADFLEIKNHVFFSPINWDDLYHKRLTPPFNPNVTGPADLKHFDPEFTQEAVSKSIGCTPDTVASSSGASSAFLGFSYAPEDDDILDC
An outline of the steps:
as §1

The next assay addresses T23, BLK (Homo sapiens, UniProt P51451).
T23 construct: purchased Nanosyn (contract screening)
Put shortly: as §1

T11 sequence (P15056 whole entry): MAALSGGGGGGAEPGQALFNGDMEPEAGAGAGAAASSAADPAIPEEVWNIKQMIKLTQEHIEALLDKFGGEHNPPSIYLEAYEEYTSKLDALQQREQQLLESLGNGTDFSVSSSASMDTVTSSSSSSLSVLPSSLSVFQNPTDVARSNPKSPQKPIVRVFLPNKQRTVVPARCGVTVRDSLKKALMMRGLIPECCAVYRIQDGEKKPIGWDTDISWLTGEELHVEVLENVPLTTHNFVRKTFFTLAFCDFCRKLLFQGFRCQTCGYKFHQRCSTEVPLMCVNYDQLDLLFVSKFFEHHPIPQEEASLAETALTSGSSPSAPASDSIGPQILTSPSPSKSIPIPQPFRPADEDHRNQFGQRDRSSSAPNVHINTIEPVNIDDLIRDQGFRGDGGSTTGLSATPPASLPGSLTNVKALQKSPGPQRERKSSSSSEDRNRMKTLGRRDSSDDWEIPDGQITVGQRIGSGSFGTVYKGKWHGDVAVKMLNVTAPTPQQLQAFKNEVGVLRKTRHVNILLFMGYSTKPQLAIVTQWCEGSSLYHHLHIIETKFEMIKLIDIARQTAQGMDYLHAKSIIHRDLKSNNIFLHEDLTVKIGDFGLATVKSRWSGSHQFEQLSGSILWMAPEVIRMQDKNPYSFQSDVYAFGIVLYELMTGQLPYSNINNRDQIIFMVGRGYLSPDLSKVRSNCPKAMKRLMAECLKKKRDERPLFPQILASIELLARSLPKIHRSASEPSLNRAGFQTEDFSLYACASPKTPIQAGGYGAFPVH
T1 sequence (P10721 26-976): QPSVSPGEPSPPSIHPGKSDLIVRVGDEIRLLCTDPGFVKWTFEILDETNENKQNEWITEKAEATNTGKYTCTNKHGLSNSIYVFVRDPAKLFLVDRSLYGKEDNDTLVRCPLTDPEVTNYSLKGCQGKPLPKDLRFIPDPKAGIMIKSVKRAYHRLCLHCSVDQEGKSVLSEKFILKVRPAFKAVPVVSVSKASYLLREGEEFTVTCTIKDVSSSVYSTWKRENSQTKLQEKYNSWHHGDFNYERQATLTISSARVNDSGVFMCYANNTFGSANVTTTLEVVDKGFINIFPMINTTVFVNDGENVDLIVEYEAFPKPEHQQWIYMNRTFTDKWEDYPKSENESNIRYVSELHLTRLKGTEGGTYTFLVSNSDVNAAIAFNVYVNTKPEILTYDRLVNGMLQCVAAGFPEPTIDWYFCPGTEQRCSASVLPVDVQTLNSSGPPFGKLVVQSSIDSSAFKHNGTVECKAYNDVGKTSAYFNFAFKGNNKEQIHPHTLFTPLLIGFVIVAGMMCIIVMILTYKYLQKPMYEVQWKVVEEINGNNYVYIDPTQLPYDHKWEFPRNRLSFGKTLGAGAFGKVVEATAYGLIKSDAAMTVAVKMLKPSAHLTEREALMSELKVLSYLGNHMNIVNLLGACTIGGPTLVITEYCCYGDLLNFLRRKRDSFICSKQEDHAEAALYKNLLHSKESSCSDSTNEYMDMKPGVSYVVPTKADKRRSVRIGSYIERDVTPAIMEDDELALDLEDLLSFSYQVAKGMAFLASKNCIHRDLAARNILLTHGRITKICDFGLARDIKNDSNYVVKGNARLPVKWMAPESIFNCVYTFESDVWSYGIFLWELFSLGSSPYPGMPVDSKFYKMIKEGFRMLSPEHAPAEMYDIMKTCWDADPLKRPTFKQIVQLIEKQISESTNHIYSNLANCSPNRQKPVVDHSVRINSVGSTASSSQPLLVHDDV

A word on the inhibition: it is the change of the read-out against control, counted positive when it falls. Read a low inhibition as little suppression. Regarding `Cc1ccc(NC(=O)c2cc([S+](C)[O-])n(-c3ccc(F)cc3)n2)cc1C#Cc1cnc2cccnn12` (centres unmarked) [Ex6, 1-(4-fluorophenyl)-N-(3-(imidazo[1,2-b]pyridazin-3-ylethynyl)-4-methylphenyl)-5-(methylsulfinyl)-1H-pyrazole-3-carboxamide], the inhibition at 5 µM against KIT was 90 to 94%; on LCK it was at least 95%; against SGK3, below 79%; against BRK, 80 to 89%; against CSF1R, 90 to 94%; against SRC it was 90 to 94%. The inhibition at 5 µM against Abl1 was below 79%; at COT1, below 79%; at FGR it was 80 to 89%; at HCK, at least 95%; at BRAF it was at least 95%; at FYN it was at least 95%. Besides, the inhibition at 5 µM was at least 95% at Abl2; 90 to 94% on p38a; below 79% against ZAK; 90 to 94% on RET; below 79% against PKCb1; 90 to 94% at LYNa. Further, the inhibition at 5 µM at CSK is 80 to 89%; on TNIK, below 79%; on CLK4 it was below 79%; against SGK2 it was 90 to 94%; against BLK, 80 to 89%.
